Assay results from patent publication US6531478B2, “Amino pyrazole derivatives useful for the treatment of obesity and other disorders” (priority 2000, dated 2003).

Molecular target: T1, human neuropeptide Y5 receptor (Homo sapiens, UniProt Q15761)
T1 construct: expressed in transfected cells; host or cells: HEK-293, stably transfected, G-418 selected; membranes
T1 sequence (Q15761 1-445): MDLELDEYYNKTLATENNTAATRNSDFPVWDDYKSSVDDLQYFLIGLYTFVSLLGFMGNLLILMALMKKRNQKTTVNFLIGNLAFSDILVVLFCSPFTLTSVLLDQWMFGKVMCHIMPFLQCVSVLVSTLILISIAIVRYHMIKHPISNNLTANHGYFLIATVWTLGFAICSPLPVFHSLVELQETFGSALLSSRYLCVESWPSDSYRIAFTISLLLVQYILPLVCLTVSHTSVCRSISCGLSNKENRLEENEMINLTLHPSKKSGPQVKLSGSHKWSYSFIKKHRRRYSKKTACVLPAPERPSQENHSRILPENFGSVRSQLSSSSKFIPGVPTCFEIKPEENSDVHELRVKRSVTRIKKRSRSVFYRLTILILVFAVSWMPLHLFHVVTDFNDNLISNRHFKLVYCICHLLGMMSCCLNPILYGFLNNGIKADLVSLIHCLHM
Assay: NPY5 HTS centrifugation assay: competition with 125I-PYY for binding to membranes of NPY5-transfected HEK-293 cells
Settings: inhibition of 125I-PYY binding; for IC50: values in nM, read-out: IC50 hNPY5; for inhibition at 3 µM / % Inh NPY5 @ 3 μM: 3 μM test compound; for inhibition at 3 µM: read-out: % Inh NPY5 @ 3 μM
Method: NPY5 HTS Centrifugation Assay
The compounds described in this invention were evaluated for binding to the human neuropeptide Y5 receptor.
The human NPY5 receptor cDNA (Genbank Accession number U66275) was inserted into the vector pClneo (Invitrogen) and transfected into human embryonic kidney cells (HEK-293) via Calcium phosphate method (Cullen 1987). Stably transfected cells were selected with G-418 (600 ug/mL). Stably transfected cells served as the source for the membranes for the NPY5 receptor binding assay.
NPY5-transfected HEK293 cells were grown to confluence in 150 cm^2 culture dishes. Cells were washed once with phosphate-buffered saline (Gibco Cat# 14040-133). Cells were then incubated in phosphate-buffered saline without Calcium and without Magnesium, supplemented with 2 mM EDTA. Cells were incubated for 10 minutes at room temperature and the cells were collected by repetitive pipetting. Cells were formed into pellets and frozen at −80 until needed. Frozen pellets were homogenized with a polytron at full speed for 12 seconds in a homogenization buffer (20 mM Tris HCl, 5 mM EDTA, pH 7.4). Homogenates were centrifuged for 5 minutes at 4° C. at 200 g. Supernatants were transferred to corex tubes and centrifuged for 25 minutes at 28,000 g. Pellets were re-suspended in Binding (20 mM HEPES, 10 mM NaCl, 0.22 mM KH2PO4, 1.3 mM CaCl2, 0.8 mM MgSO4, pH 7.4). Membranes were kept on ice until use.
A competition binding assay, known to those skilled in the art, was used in which the test compounds (aminopyrazoles of formula (I) compete with ^1251I-PYY for binding to cell membranes. In simple terms, less ^125I-PYY bound to the membranes implies that the test compound is a good inhibitor (competitor). Bound ^1251I-PYY is determined by centrifugation the membranes, aspirating supernatant, washing away residual ^125I-PYY and subsequently counting the bound sample in a γ-counter.
Procedure for Radioligand Binding Assay
Compounds to be tested were prepared as 10× stocks in binding buffer and added first to assay tubes (RIA vials, Sarstedt). Twenty (20) μL of each 10× compound stock was pipetted into vials and 80 μL of ^125I-PYY (NEN catalog number NEX240), which had been diluted to a concentration of 200 pM in 0.25% BSA in binding buffer, was added to the compound tubes (final concentration of ^125I-PYY is 80 pM). To each tube was added 100 μL of membranes and the mixture was agitated by pipetting 2 times. Samples were incubated for 1 hr at room temperature. Aluminum cast plates (Sarstedt) containing the vials were centrifuged 10 minutes at 3200 rpm in a Sorvall RT6000. Supernatant was then aspirated. To each vial was added 400 μL PBS and the vial was then aspirated again. Vials were put in carrier polypropylene 12×75 tube and counted in gamma counter (Packard). Non-specific binding was determined in the presence of 300 nM NPY. Percent inhibition of ^125I-PYY binding was calculated by subtracting non-specific binding from the test samples (compounds of formula (I)), taking these counts and dividing by total binding, and multiplying by 100. Inhibitory concentration values (IC50) of compounds that show appreciable inhibition of ^125I-PYY binding were calculated by obtaining percent inhibition of ^125I-PYY binding values at different concentrations of the test compound, and using a graphing program such as GraphPad Prism (San Diego, Calif.) to calculate the concentration of test compound that inhibits fifty-percent of ^125I-PYY binding (Table 2). These operations are known to those skilled in the art.

| SMILES | % Inh NPY5 @ 3 μM | also measured |
| --- | --- | --- |
| Cc1ccc(S(=O)(=O)Nc2ccc(-c3cc(NS(=O)(=O)c4ccc(C)cc4)n(-c4ccccc4C)n3)cc2)cc1 [Cmpd 1] | – | IC50: 200 nM |
| O=C(Nc1ccccc1)c1ccc(-c2cc(NS(=O)(=O)c3ccccc3)n(-c3ccccc3)n2)cc1 [Cmpd 4, N-Phenyl-4-[1-phenyl-5-[(phenylsulfonyl)amino]-1H-pyrazol-3-yl]benzamide] | – | inhibition at 3 µM: 0% |
| O=C(Nc1ccc(F)cc1)c1ccc(-c2cc(NS(=O)(=O)c3ccccc3)n(-c3ccccc3)n2)cc1 [Cmpd 5] | 0.00% | – |
| Cc1ccc(NC(=O)c2ccc(-c3cc(NS(=O)(=O)c4ccccc4)n(-c4ccccc4)n3)cc2)cc1 [Cmpd 6] | 0.00% | – |
| COC(=O)c1ccc(-c2cc(N)n(-c3ccccc3)n2)cc1 [Cmpd 7] | 13.00% | – |
| COC(=O)c1ccc(-c2cc(N(S(=O)(=O)c3ccccc3)S(=O)(=O)c3ccccc3)n(-c3ccccc3)n2)cc1 [Cmpd 8] | 0% | – |
| O=C(O)c1ccc(-c2cc(NS(=O)(=O)c3ccccc3)n(-c3ccccc3)n2)cc1 [Cmpd 9] | 0% | – |
| O=C(NCc1ccccc1)c1ccc(-c2cc(NS(=O)(=O)c3ccccc3)n(-c3ccccc3)n2)cc1 [Cmpd 10] | 19.00% | – |
| O=C(Nc1cccc2ccccc12)c1ccc(-c2cc(NS(=O)(=O)c3ccccc3)n(-c3ccccc3)n2)cc1 [Cmpd 11] | 14.00% | – |
| O=C(Nc1ccc2ccccc2c1)c1ccc(-c2cc(NS(=O)(=O)c3ccccc3)n(-c3ccccc3)n2)cc1 [Cmpd 12] | 2.00% | – |
| O=C(c1ccc(-c2cc(NS(=O)(=O)c3ccccc3)n(-c3ccccc3)n2)cc1)N1CCc2ccccc2C1 [Cmpd 13] | 12.00% | – |
| O=C(c1ccc(-c2cc(NS(=O)(=O)c3ccccc3)n(-c3ccccc3)n2)cc1)N1CCCc2ccccc21 [Cmpd 14] | – | % Inh NPY5 @ 30 μM (30 μM test compound (stated in cell)): (26.00 @ % |
| Cc1ccc(-n2nc(-c3ccc(C(=O)Nc4ccccc4)cc3)cc2NS(=O)(=O)c2ccc(C)cc2)cc1 [Cmpd 15] | 4.00% | – |
| Cc1ccc(-n2nc(-c3ccc(C(=O)Nc4ccc(F)cc4)cc3)cc2NS(=O)(=O)c2ccc(C)cc2)cc1 [Cmpd 16] | 1.00% | – |
| Cc1ccc(NC(=O)c2ccc(-c3cc(NS(=O)(=O)c4ccc(C)cc4)n(-c4ccc(C)cc4)n3)cc2)cc1 [Cmpd 17] | 6.00% | – |
| COC(=O)c1ccc(-c2cc(NS(=O)(=O)c3ccccc3)n(-c3ccccc3)n2)cc1 [Cmpd 18] | 2.00% | – |
| COC(=O)c1ccc(-c2cc(N)n(-c3ccc(C)cc3)n2)cc1 [Cmpd 19] | 2.00% | – |
| COC(=O)c1ccc(-c2cc(N(S(=O)(=O)c3ccc(C)cc3)S(=O)(=O)c3ccc(C)cc3)n(-c3ccc(C)cc3)n2)cc1 [Cmpd 20] | 0.00% | – |
| Cc1ccc(-n2nc(-c3ccc(C(=O)O)cc3)cc2NS(=O)(=O)c2ccc(C)cc2)cc1 [Cmpd 21] | 16.00% | – |
| Cc1ccc(-n2nc(-c3ccc(N(S(=O)(=O)c4ccccc4)S(=O)(=O)c4ccccc4)cc3)cc2N)cc1 [Cmpd 22, N-[4-[5-amino-1(4-methylphenyl)-1H-pyrazol-3-yl]phenyl]-N-(phenylsulfonyl)-benzenesulfonamide] | – | IC50: 514 nM |

| SMILES | % Inh NPY5 @ 3 μM | also measured |
| --- | --- | --- |
| Cc1ccc(-n2nc(-c3ccc(N(S(=O)(=O)c4cccc(C(F)(F)F)c4)S(=O)(=O)c4cccc(C(F)(F)F)c4)cc3)cc2N)cc1 [Cmpd 26] | 16.00% | – |
| Cc1ccc(-n2nc(-c3ccc(N(S(=O)(=O)c4ccc5ccccc5c4)S(=O)(=O)c4ccc5ccccc5c4)cc3)cc2N)cc1 [Cmpd 27] | 0.00% | – |
| CC(=O)Nc1ccc(S(=O)(=O)N(c2ccc(-c3cc(N)n(-c4ccc(C)cc4)n3)cc2)S(=O)(=O)c2ccc(NC(C)=O)cc2)cc1 [Cmpd 28] | 21.00% | – |
| Cc1ccc(-n2nc(-c3ccc(N(S(=O)(=O)c4ccc(OC(F)(F)F)cc4)S(=O)(=O)c4ccc(OC(F)(F)F)cc4)cc3)cc2N)cc1 [Cmpd 29] | 16.00% | – |
| Cc1ccc(-n2nc(-c3ccc(NS(=O)(=O)c4ccc(C)cc4)cc3)cc2N)cc1 [Cmpd 31] | – | IC50: 28 nM |
| Cc1ccc(-n2nc(-c3ccc(C(=O)O)cc3)cc2N)cc1 [Cmpd 32] | 0.00% | – |
| Cc1ccc(NC(=O)c2ccc(-c3cc(N)n(-c4ccc(C)cc4)n3)cc2)cc1 [Cmpd 33] | 0.00% | – |
| Cc1ccc(-n2nc(-c3ccc(N(S(=O)(=O)c4cccc5ccccc45)S(=O)(=O)c4cccc5ccccc45)cc3)cc2N)cc1 [Cmpd 35] | 29.00% | – |
| COc1ccc(S(=O)(=O)Nc2ccc(-c3cc(N)n(-c4ccc(C)cc4)n3)cc2)cc1 [Cmpd 36] | – | inhibition at 3 µM: 100%; IC50: 15 nM |
| Cc1ccc(-n2nc(-c3ccc(NS(=O)(=O)c4ccccc4)cc3)cc2N)cc1 [Cmpd 37] | – | inhibition at 3 µM: 97%; IC50: 25 nM |
| Cc1ccc(-n2nc(-c3ccc(NS(=O)(=O)c4ccc(F)cc4)cc3)cc2N)cc1 [Cmpd 38] | – | inhibition at 3 µM: 98%; IC50: 29 nM |
| Cc1ccc(-n2nc(-c3ccc(NS(=O)(=O)c4cccc(C(F)(F)F)c4)cc3)cc2N)cc1 [Cmpd 39] | – | inhibition at 3 µM: 95%; IC50: 31 nM |
| Cc1ccc(-n2nc(-c3ccc(N(S(=O)(=O)c4cc(C(F)(F)F)cc(C(F)(F)F)c4)S(=O)(=O)c4cc(C(F)(F)F)cc(C(F)(F)F)c4)cc3)cc2N)cc1 [Cmpd 40] | 16.00% | – |
| Cc1ccc(-n2nc(-c3ccc(NS(=O)(=O)c4cc(C(F)(F)F)cc(C(F)(F)F)c4)cc3)cc2N)cc1 [Cmpd 41] | 10.00% | – |
| Cc1ccc(-n2nc(-c3ccc(NS(=O)(=O)c4ccc(OC(F)(F)F)cc4)cc3)cc2N)cc1 [Cmpd 42] | – | inhibition at 3 µM: 94%; IC50: 67 nM |
| Cc1ccc(-n2nc(-c3ccc(NS(=O)(=O)c4cccc5cccnc45)cc3)cc2N)cc1 [Cmpd 43] | 62.00% | – |
| Cc1ccc(-n2nc(-c3ccc(NS(=O)(=O)c4cccc5ccccc45)cc3)cc2N)cc1 [Cmpd 44] | 72.00% | – |
| Cc1ccc(-n2nc(-c3ccc(NS(=O)(=O)c4ccc5ccccc5c4)cc3)cc2N)cc1 [Cmpd 45] | – | inhibition at 3 µM: 90%; IC50: 208 nM |
| Cc1ccc(-n2nc(-c3ccc(N(S(=O)(=O)c4ccc(C(F)(F)F)cc4)S(=O)(=O)c4ccc(C(F)(F)F)cc4)cc3)cc2N)cc1 [Cmpd 46] | 21.00% | – |
| Cc1ccc(-n2nc(-c3ccc(NS(=O)(=O)c4ccc(C(F)(F)F)cc4)cc3)cc2N)cc1 [Cmpd 47] | – | inhibition at 3 µM: 82%; IC50: 63 nM |
